Assay results taken from patent US7230028B2, “Dimeric compounds and their use as anti-viral agents” (priority 2001, dated 2007).
Values after ≈ are worked out from the molar mass of the structure shown. Values joined by “and” are separate entries in the source; they are usually repeats but may differ in a detail not shown here. Identical values can stand only once.

How the values were obtained:
[1] = system: A/Bayern/7/95 BVL006 (H1N1); test: Plaque reduction assay (PRA) in MDCK cells; format: cell-based, influenza A H1N1; conditions: A/Bayern/7/95 (H1N1)
Procedure: (§1) Madin Darby Canine Kidney (MDCK) cells are seeded into six well tissue culture plates and grown to confluency via standard methods. Influenza viruses are diluted in a minimal volume of phosphate buffered saline supplemented with 0.2% bovine serum albumin to yield an estimated titre of 50–100 plaque forming units (pfu) per well. After adsorption to the MDCK cells for one hour at 37° C. in a 5% CO2 atmosphere the viral inocula is aspirated and replaced with viral growth media (minimal Eagle's media supplemented with BSA, trypsin and insulin/transferrin/selenium at optimal concentrations) containing sufficient agar or agarose (generally 1–2%) to cause the media to gel at room temperature and at 37° C. in a 5% CO2 atmosphere until plaques develop (generally 2–4 days). Plaques can be visualised with a suitable stain (e.g. 0.4% crystal violet in formal saline) before counting.

A/WSN/33 BVLV09 (H1N1) = test: Plaque reduction assay (PRA) in MDCK cells; format: cell-based, influenza A H1N1; conditions: A/WSN/33 (H1N1)
Procedure: as §1

[2] = system: A/Victoria/3/75 BVLV017 (H3N2); test: Plaque reduction assay (PRA) in MDCK cells; format: cell-based; conditions: Influenza A virus, H3N2, MDCK, read-out: EC50 PRA A/Vic, plaque reduction, A/Victoria/3/75 (H3N2)
[3] = system: A/Sydney/5/97 BVLV015 (H3N2); test: Plaque reduction assay (PRA) in MDCK cells; format: cell-based, influenza A H3N2; conditions: A/Sydney/5/97 (H3N2)
Procedure: as §1

[4] = system: A/New Caledonia/20/99 BVLV008 (H1N1); test: Plaque reduction assay (PRA) in MDCK cells; format: cell-based; conditions: for EC50 PRA A/New: plaque reduction, A/New Caledonia/20/99 (H1N1)
[5] = system: A/Panama/2007/99 BVLV008 (H3N2); test: Plaque reduction assay (PRA) in MDCK cells; format: cell-based; conditions: for EC50 PRA A/Pan: plaque reduction, A/Panama/2007/99 (H3N2)
B/Harbin/7/95 BVLV008 = test: Plaque reduction assay (PRA) in MDCK cells; format: cell-based; conditions: Influenza B virus, read-out: EC50 PRA B/Harb
Procedure: as §1

B/Hong Kong/5/72 BVLV012 = test: Plaque reduction assay (PRA) in MDCK cells; format: cell-based, influenza B
Procedure: as §1

[6] = Rat lung retention assay (intra-tracheal dosing); format: in vivo; conditions: for Ratio Mean (lung) (cmpd)/PCT AU01/01128 compound 3: rat, in vivo; for Ratio Mean (lung) (cmpd)/PCT AU01/01128 compound 3 / (cmpd): 0.1 mg/kg; for Mean (cmpd) / (cmpd): rat lung, 0.1 mg/kg intra-tracheal; for (cmpd): individual animal, bis(trifluoroacetic acid salt)
Procedure: Rodents are anaesthetised and dosed with compound of interest by the intra-tracheal route at a dose volume of 0.8 ml/kg. The rodent is then held in the vertical position until full recovery is achieved. […] Any analytical method suitable for detection of this type of compound may be used. The time at which levels of compound fall below the sensitivity of the analytical techniques identified will determine the residency time of the compound in lung tissue.
Please note that all experiments included a co-dosed internal standard, namely compound 3 of International Patent Publication No. WO 02/20514, to permit comparison. The data are expressed as a ratio with respect to this compound, the structure of which is shown below.

Influenza A/Sydney/5/97 = test: Cytopathic effect (CPE) assay, inhibition of influenza virus replication in MDCK cells; format: cell-based; conditions: up to 72 hours, MTT
Influenza B/Harbin/7/95 = test: as above; format: cell-based
B/Victoria/1/67 = test: Plaque reduction assay (PRA) in MDCK cells; format: cell-based, influenza B; conditions: bis(trifluoroacetic acid salt)
[7] = system: B/Yamanashi/166/98 BVLV007; test: Plaque reduction assay (PRA) in MDCK cells; format: cell-based; conditions: plaque reduction, B/Yamanashi/166/98

CC(=O)N[C@H]1[C@H]([C@H](O)[C@H](O)CO)OC(C(=O)O)=C[C@@H]1NC(=N)N [Compound A, 4-guanidino-2-deoxy-2,3-dehydro-N-acetylneuraminic acid]
EC50 ([1]; Influenza A virus, MDCK, read-out: EC50 PRA A/Bay): 35 ng/mL (≈ 105 nM)
EC50 PRA A/WSN (A/WSN/33 BVLV09 (H1N1)): > 100 ng/mL
EC50 (A/WSN/33 BVLV09 (H1N1); Influenza A virus, MDCK): 56 ng/mL (≈ 169 nM)
EC50 [2]: 5.5 ng/mL (≈ 16.6 nM)
EC50 ([3]; Influenza A virus, MDCK, read-out: EC50 PRA A/Syd): 2.4 ng/mL (≈ 7.22 nM)
EC50 ([4]; Influenza A virus, H1N1, MDCK, read-out: EC50 PRA A/New, plaque reduction, A/New Caledonia/20/99 (H1N1)): 0.27 ng/mL (≈ 0.812 nM)
EC50 PRA A/New [4]: 0.23 ng/mL (≈ 0.692 nM)
EC50 ([5]; Influenza A virus, H3N2, MDCK, read-out: EC50 PRA A/Pan, plaque reduction, A/Panama/2007/99 (H3N2)): 2.7 ng/mL (≈ 8.12 nM)
EC50 PRA A/Pan [5]: 3 ng/mL (≈ 9.03 nM)
EC50 (B/Harbin/7/95 BVLV008): 0.19 ng/mL (≈ 0.572 nM)
EC50 (B/Hong Kong/5/72 BVLV012; Influenza B virus, MDCK, read-out: EC50 PRA B/HongK): 21 ng/mL (≈ 63.2 nM)
Ratio Mean (lung) (cmpd)/PCT AU01/01128 compound 3 ([6]; 48 h): 0.26
Ratio Mean (lung) (cmpd)/PCT AU01/01128 compound 3 ([6]; 168 h): 0.08

CC(=O)N[C@H]1[C@H]([C@H](OC(=O)NCCCCCCCCCCCCCCNC(=O)O[C@@H]([C@@H]2OC(C(=O)O)=C[C@H](NC(=N)N)[C@H]2NC(C)=O)[C@H](O)CO)[C@H](O)CO)OC(C(=O)O)=C[C@@H]1NC(=N)N.O=C(O)C(F)(F)F.O=C(O)C(F)(F)F [Example 5]
ID50 A/Sydney/5/97 (Influenza A/Sydney/5/97): 0.1 ng/mL
ID50 B/Harbin/7/95 (Influenza B/Harbin/7/95; molar): 0.26 M
ID50 B/Harbin/7/95 (Influenza B/Harbin/7/95; up to 72 hours, MTT): 0.0003 µg/mL
EC50 PRA A/Bay [1]: <0.0001 ng/mL
EC50 PRA A/WSN (A/WSN/33 BVLV09 (H1N1)): <0.0001 ng/mL
EC50 PRA A/Syd [3]: 0.032 ng/mL
EC50 PRA A/New [4]: <0.0001 ng/mL
EC50 PRA A/Pan [5]: 0.032 ng/mL
EC50 PRA B/Vic (B/Victoria/1/67): 0.1 ng/mL
EC50 PRA B/HongK (B/Hong Kong/5/72 BVLV012): 0.37 ng/mL
EC50 PRA B/Yam [7]: <0.0001 ng/mL
Mean (cmpd) ([6]; 48 hrs): 4803 ng/g
Mean (cmpd) ([6]; 168 hrs): 1798 ng/g
(cmpd) ([6]; 48 hrs): 3044 ng/g and 6268 ng/g and 5097 ng/g
(cmpd) ([6]; 168 hrs): 2750 ng/g and 1255 ng/g and 1388 ng/g
